Assay results published in patent publication US20130158075A1, “HETEROCYCLIC COMPOUNDS AS DGAT1 INHIBITORS” (PIRAMAL ENTERPRISES LIMITED, priority 2010, published 2013).

What follows are molecules tested against T1, hDGAT1 (Homo sapiens, UniProt O75907) (assay: In-vitro DGAT1 assay with hDGAT1 microsomes from Sf9 cells (14C oleoyl CoA, scintillation counting)). Conditions: at 1 μM.
T1 construct: made in house; host or cells: Sf9 insect cells (baculovirus); microsomal fraction
T1 sequence (O75907 1-488): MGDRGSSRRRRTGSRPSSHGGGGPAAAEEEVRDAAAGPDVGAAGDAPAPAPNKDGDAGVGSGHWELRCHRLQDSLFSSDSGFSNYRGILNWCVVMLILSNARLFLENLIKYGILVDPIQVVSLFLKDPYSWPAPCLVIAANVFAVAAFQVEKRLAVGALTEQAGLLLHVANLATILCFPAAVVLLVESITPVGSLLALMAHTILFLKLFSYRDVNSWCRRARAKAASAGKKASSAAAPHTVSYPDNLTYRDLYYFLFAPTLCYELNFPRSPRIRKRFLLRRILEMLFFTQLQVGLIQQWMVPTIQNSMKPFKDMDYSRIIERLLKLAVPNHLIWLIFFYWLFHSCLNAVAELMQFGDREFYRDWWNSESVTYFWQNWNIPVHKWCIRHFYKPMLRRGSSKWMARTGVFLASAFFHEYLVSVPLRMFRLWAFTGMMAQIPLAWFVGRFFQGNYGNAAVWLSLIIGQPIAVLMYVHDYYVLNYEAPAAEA
Type: biochemical
Outline: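 Microsomes from Sf9 cells infected with hDGAT1 baculovirus (MOI 5, harvested ~66-72 h) were incubated with [14C]oleoyl-CoA and 1,2-dioleoyl-sn-glycerol at 37 °C for 10 min, in duplicate. After alkaline ethanol stop, triglycerides were heptane-extracted and counted by liquid scintillation; percent inhibition was plotted against compound concentration (nM).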

| Structure (SMILES) | Percentage inhibition of hDGAT1 |
| --- | --- |
| CC(C)(CCc1ncc(-c2ccc(NC(=O)Nc3cc(F)c(F)c(F)c3)cc2)s1)C(=O)[O-].[Na+] [Example 255A, Sodium salt of 2,2-dimethyl-4-(5-(4-(3-(3,4,5-trifluorophenyl)ureido)phenyl)thiazol-2-yl)butanoate] | ++ (>50 % Inhibition) |
| O=C(O)CCCc1nnc(-c2ccc(NC(=O)c3ccc(-c4ccccc4)cc3)cc2)s1 [Example 290, 4-(5-(4-([1,1′-Biphenyl]-4-ylcarboxamido)phenyl)-1,3,4-thiadiazol-2-yl)butanoic acid] | + (20-50% Inhibition) |

Same assay, conditions: read-out: Percentage inhibition of hDGAT1

| Structure (SMILES) | inhibition at 1 µM [%] |
| --- | --- |
| CC(C)(CCc1ncc(-c2ccc(NC(=O)NCCN3CCCCC3)cc2)s1)C(=O)O [Example 257, 2,2-Dimethyl-4-(5-(4-(3-(2-(piperidin-1-yl)ethyl)ureido)phenyl)thiazol-2-yl)butanoic acid] | 20 to 50 |
| CC(C)(CCc1ncc(-c2ccc(NC(=O)NCc3ccccc3)cc2)s1)C(=O)O [Example 259, 4-(5-(4-(3-Benzylureido)phenyl)thiazol-2-yl)-2,2-dimethylbutanoic acid] | > 50 |
| CC(C)(CCc1ncc(-c2ccc(NC(=O)N3CCC(F)(F)CC3)cc2)s1)C(=O)O [Example 261, 4-(5-(4-(4,4-Difluoropiperidine-1-carboxamido)phenyl)thiazol-2-yl)-2,2-dimethyl butanoic acid] | 20 to 50 |
| CC(C)(CCc1ncc(-c2ccc(NC(=O)N3CCC(c4ccccc4)CC3)cc2)s1)C(=O)O [Example 263, 2,2-Dimethyl-4-(5-(4-(4-phenylpiperidine-1-carboxamido)phenyl)thiazol-2-yl)butanoic acid] | > 50 |
| CC(C)(CCc1ncc(-c2ccc(NC(=O)NCc3ccc(C#N)cc3)cc2)s1)C(=O)O [Example 265, 4-(5-(4-(3-(4-Cyanobenzyl)ureido)phenyl)thiazol-2-yl)-2,2-dimethylbutanoic acid] | 20 to 50 |
| O=C(O)CCCc1nnc(-c2ccc(NC(=O)Nc3cccc(C(F)(F)F)c3)cc2)s1 [Example 278, 4-(5-(4-(3-(3-(Trifluoromethyl)phenyl)ureido)phenyl)-1,3,4-thiadiazol-2-yl)butanoic acid] | > 50 |
| O=C(O)CCCc1nnc(-c2ccc(NC(=O)Nc3ccccc3Cl)cc2)s1 [Example 280, 4-(5-(4-(3-(2-Chlorophenyl)ureido)phenyl)-1,3,4-thiadiazol-2-yl)butanoic acid] | > 50 |
| Cc1ccc(NC(=O)Nc2ccc(-c3nnc(CCCC(=O)O)s3)cc2)cc1 [Example 282, 4-(5-(4-(3-(p-Tolyl)ureido)phenyl)-1,3,4-thiadiazol-2-yl)butanoic acid] | > 50 |
| O=C(O)CCCc1nnc(-c2ccc(NC(=O)Nc3ccc(F)cc3F)cc2)s1 [Example 284, 4-(5-(4-(3-(2,4-Difluorophenyl)ureido)phenyl)-1,3,4-thiadiazol-2-yl)butanoic acid] | > 50 |
| O=C(O)CCCc1nnc(-c2ccc(NC(=O)Nc3ccc(Cl)cc3Oc3ccccc3)cc2)s1 [Example 286, 4-(5-(4-(3-(4-Chloro-2-phenoxyphenyl)ureido)phenyl)-1,3,4-thiadiazol-2-yl)butanoic acid] | > 50 |
| CC(C)(C)c1ccc(C(=O)Nc2ccc(-c3nnc(CCCC(=O)O)s3)cc2)cc1 [Example 288, 4-(5-(4-(4-(tert-Butyl)benzamido)phenyl)-1,3,4-thiadiazol-2-yl)butanoic acid] | 20 to 50 |
| O=C(O)CCCc1nnc(-c2ccc(NC(=O)c3ccc(OC(F)(F)F)cc3)cc2)s1 [Example 292, 4-(5-(4-(4-(Trifluoromethoxy)benzamido)phenyl)-1,3,4-thiadiazol-2-yl)butanoic acid] | 20 to 50 |
| O=C(O)CCCc1nnc(-c2ccc(NC(=O)Nc3ccccc3Cl)cc2)o1 [Example 296, 4-(5-(4-(3-(2-Chlorophenyl)ureido)phenyl)-1,3,4-oxadiazol-2-yl)butanoic acid] | 20 to 50 |
| O=C(O)CCCc1nnc(-c2ccc(NC(=O)Nc3ccc(F)cc3F)cc2)o1 [Example 300, 4-(5-(4-(3-(2,4-Difluorophenyl)ureido)phenyl)-1,3,4-oxadiazol-2-yl)butanoic acid] | 20 to 50 |
| O=C(O)CCCc1nnc(-c2ccc(NC(=O)Nc3cccc(C(F)(F)F)c3)cc2)o1 [Example 302, 4-(5-(4-(3-(3-(Trifluoromethyl)phenyl)ureido)phenyl)-1,3,4-oxadiazol-2-yl)butanoic acid] | 20 to 50 |
| O=C(Nc1ccc(-c2ccn(C3CCC(C(=O)O)CC3)n2)cc1)Nc1cccc(C(F)(F)F)c1 (stereo not shown) [Example 315, 4-(3-(4-(3-(3-(Trifluoromethyl)phenyl)ureido)phenyl)-1H-pyrazol-1-yl)cyclohexanecarboxylic acid] | 20 to 50 |
| O=C(O)CCCc1nc(-c2ccc(NC(=O)Nc3ccc(Cl)cc3Oc3ccccc3)cc2)no1 [Example 322, 4-(3-(4-(3-(4-Chloro-2-phenoxyphenyl)ureido)phenyl)-1,2,4-oxadiazol-5-yl) butanoic acid] | > 50 |
| O=C(O)CC1CCC(c2ncc(-c3ccc(NC(=O)Nc4ccccc4Cl)cc3)s2)CC1 (stereo not shown) [Example 346, 2-(4-(5-(4-(3-(2-Chlorophenyl)ureido)phenyl)thiazol-2-yl)cyclohexyl)acetic acid] | > 50 |
| O=C(O)CC1CCC(c2ncc(-c3ccc(NC(=O)Nc4ccccc4F)cc3)s2)CC1 (stereo not shown) [Example 348, 2-(4-(5-(4-(3-(2-Fluorophenyl)ureido)phenyl)thiazol-2-yl)cyclohexyl)acetic acid] | > 50 |
| O=C(O)CC1CCC(c2ncc(-c3ccc(NC(=O)Nc4cc(F)cc(F)c4)cc3)s2)CC1 (stereo not shown) [Example 356, 2-(4-(5-(4-(3-(3,5-Difluorophenyl)ureido)phenyl)thiazol-2-yl)cyclohexyl)acetic acid] | > 50 |
| O=C(O)CC1CCC(c2ncc(-c3ccc(NC(=O)Nc4cc(F)c(F)cc4F)cc3)s2)CC1 (stereo not shown) [Example 358, 2-(4-(5-(4-(3-(2,4,5-Trifluorophenyl)ureido)phenyl)thiazol-2-yl)cyclohexyl)acetic acid] | > 50 |
| O=C(O)CC1CCC(c2ncc(-c3ccc(NC(=O)Nc4c(F)cc(F)cc4F)cc3)s2)CC1 (stereo not shown) [Example 360, 2-(4-(5-(4-(3-(2,4,6-Trifluorophenyl)ureido)phenyl)thiazol-2-yl)cyclohexyl)acetic acid] | > 50 |
| O=C(O)CC1CCC(c2ncc(-c3ccc(NC(=O)Nc4ccc(F)cc4F)cc3)s2)CC1 (stereo not shown) [Example 362, 2-(4-(5-(4-(3-(2,4-Difluorophenyl)ureido)phenyl)thiazol-2-yl)cyclohexyl)acetic acid] | > 50 |
| O=C(O)CC1CCC(c2ncc(-c3ccc(NC(=O)c4ccc(Cl)cc4Cl)cc3)s2)CC1 (stereo not shown) [Example 364, 2-(4-(5-(4-(2,4-Dichlorobenzamido)phenyl)thiazol-2-yl)cyclohexyl)acetic acid] | > 50 |
| O=C(O)CC1CCC(c2ncc(-c3ccc(NC(=O)c4c(F)cccc4C(F)(F)F)cc3)s2)CC1 (stereo not shown) [Example 366, 2-(4-(5-(4-(2-Fluoro-6-(trifluoromethyl)benzamido)phenyl)thiazol-2-yl)cyclohexyl)acetic acid] | > 50 |
| O=C(O)CC1CCC(c2ncc(-c3ccc(NC(=O)Nc4cc(F)c(F)c(F)c4)cc3)s2)CC1 (stereo not shown) [Example 368, 2-(4-(5-(4-(3-(3,4,5-Trifluorophenyl)ureido)phenyl)thiazol-2-yl)cyclohexyl)acetic acid] | > 50 |
